Like-named read-outs stand apart in the source and are kept apart here.
Experiments:
[1] = Non-specific binding of drugs in human liver microsomes (fu,mic), rapid equilibrium dialysis; type: in vitro ADME; conditions: unbound drug fraction in the microsomal mixture, inhibitor 1 µM, 37 °C
[2] = test system: CYP2D6; set-up: method as in earlier work; conditions: in HLM; ref DIDB; cited from earlier work
[3] = test system: MATE1; conditions: read-out: IC50 (MATE1); ref DIDB; cited from earlier work
[4] = test system: CYP3A4; set-up: method as in earlier work; conditions: ref DIDB; cited from earlier work
[5] = test system: OATP1A2; conditions: read-out: IC50 (OATP1A2); ref DIDB; cited from earlier work
[6] = test system: OCT2; conditions: read-out: IC50 (OCT2); ref DIDB; cited from earlier work
[7] = test system: P-gp; conditions: read-out: Ki (P-gp); ref DIDB; cited from earlier work
[8] = test system: OCT1; conditions: read-out: IC50 (OCT1); ref DIDB; cited from earlier work
[9] = test system: MATE2-K; conditions: read-out: IC50 (MATE2-K); ref DIDB; cited from earlier work
[10] = target: T1, CYP3A (Homo sapiens, UniProt P08684); conditions: probe drugs midazolam and simvastatin, in vivo; ref University of Washington Drug Interaction Database; cited from earlier work
[11] = Intracellular fraction of unbound drug (fu,cell), dialysis of human hepatocyte homogenate; type: in vitro ADME; conditions: homogenate of cryopreserved human hepatocytes, geometrical mean ± SD of triplicates
[12] = cited from earlier work; for ka: absorption rate constant, 35-40 (verapamil); for ka / Fa: ref 5,17 (crizotinib), 19-21 (erythromycin), 22-25 (imatinib), 20,32,33 (roxithromycin), 4,34 (telithromycin); for Cave,ss: average plasma concentration at steady-state; for Fa: fraction absorbed, 6,18 (diltiazem), 26-28 (nefazodone), 29,30 (nilotinib), 29,31 (pazopanib); for Cmax,ss: maximum plasma concentration at steady-state
[13] = test system: human hepatocytes; assay: Cytosolic drug accumulation ratio (Kpcyto) and cytosolic bioavailability (Fcyto) in human hepatocytes with chloroquine; type: in vitro ADME; conditions: for Kpcyto: cellular drug accumulation ratio in the presence of chloroquine (100 µM, 45 min), 0.5 µM drug; for Fcyto: cytosolic bioavailability = fu,cell × Kpcyto; for Fcyto / Fic/Fcyto: human hepatocytes; for Fic/Fcyto: ratio of intracellular to cytosolic bioavailability; for Kp compared with Kpcyto: absence vs presence of chloroquine, p ≤ 0.05 in Student’s t-test where called significant
[14] = test system: transporters; set-up: method as in earlier work; conditions: cells wrapped over several lines are given as printed fragments; ref DIDB; cited from earlier work
[15] = target: T1, CYP3A; assay: in vitro; conditions: microsomes, pH 7.4
[16] = Intracellular drug accumulation ratio (Kp) and intracellular bioavailability (Fic) in cryopreserved human hepatocytes; type: in vitro ADME; conditions: human, cryopreserved human hepatocytes in suspension; cellular drug accumulation ratio; 0.5 µM drug; no chloroquine; geometrical mean ± SD of triplicates
[17] = test system: human hepatocytes; assay: as above; type: in vitro ADME; conditions: intracellular bioavailability = fu,cell × Kp; human hepatocytes
[18] = target: T1, CYP3A; assay: in vitro
[19] = blood-to-plasma ratio; Predicted within/obtained from Simcyp; ref Simcyp (Simcyp Limited, UK); cited from earlier work
[20] = test system: CYP3A4; conditions: midazolam; cited from earlier work
[21] = HLM 0.1 mg/ml, read-out: fu,mic at 0.1 mg/ml
[22] = HLM 0.5 mg/ml, read-out: fu,mic at 0.5 mg/ml
[23] = pH 7.4, KI, inactivation constant, HLM 0.5 mg/ml preincubation 0-30 min, midazolam 20 µM, mean ± SD of triplicates
[24] = pH 7.4, KI,u, calculated as fu,mic at 0.5 mg/ml × KI

T1 sequence (P08684 2-503): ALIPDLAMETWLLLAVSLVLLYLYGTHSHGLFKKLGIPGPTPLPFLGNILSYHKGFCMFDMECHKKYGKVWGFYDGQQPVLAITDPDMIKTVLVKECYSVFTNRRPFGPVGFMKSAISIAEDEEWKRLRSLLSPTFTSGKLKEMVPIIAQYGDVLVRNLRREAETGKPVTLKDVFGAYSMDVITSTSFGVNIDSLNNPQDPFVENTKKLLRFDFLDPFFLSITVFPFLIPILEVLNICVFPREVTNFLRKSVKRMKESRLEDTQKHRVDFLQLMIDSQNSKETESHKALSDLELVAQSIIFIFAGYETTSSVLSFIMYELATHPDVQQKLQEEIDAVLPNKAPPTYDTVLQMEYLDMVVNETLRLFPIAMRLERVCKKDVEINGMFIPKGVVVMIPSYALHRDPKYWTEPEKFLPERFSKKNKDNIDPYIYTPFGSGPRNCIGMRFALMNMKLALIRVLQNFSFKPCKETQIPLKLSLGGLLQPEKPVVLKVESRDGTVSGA

| Compound | fraction unbound at 4 h, 1 µM [1, 21] | fraction unbound at 4 h, 1 µM [1, 22] | class of CYP3A inhibitor by increase in AUC of the probe drug [10] | fraction unbound at 4 h [11] | ka [12] | Fa [12] | Kpcyto [13] | Fcyto [13] | IC50 at 5 min [15] | Ki at 5 min [15] | Kp at 0.5 µM [16] | Fic [17] | KI (inactivation) [18, 23] | KI (inactivation) [18, 24] | other results |
| --- | --- | --- | --- | --- | --- | --- | --- | --- | --- | --- | --- | --- | --- | --- | --- |
| CC[C@H]1OC(=O)[C@H](C)[C@@H](O[C@H]2C[C@@](C)(OC)[C@@H](O)[C@H](C)O2)[C@H](C)[C@@H](O[C@@H]2O[C@H](C)C[C@H](N(C)C)[C@H]2O)[C@](C)(O)C[C@@H](C)CN(C)[C@H](C)[C@@H](O)[C@]1(C)O [Azithromycin] | 0.766 | 0.765 | – | – | – | – | – | – | – | – | – | – | – | – | – |
| CCN(CC)CCCC(C)Nc1ccnc2cc(Cl)ccc12 (stereo not shown) [Chloroquine] | – | – | – | – | – | – | – | – | – | – | – | – | – | – | IC50 [2]: ~50 µM; IC50 [3]: 1.5 µM; IC50 [4]: 150 µM; IC50 [5]: […]; IC50 [6]: ~100 µM; Ki [7]: […]; IC50 [8]: 13 µM; IC50 [9]: 4 µM |
| C[C@@H](Oc1cc(-c2cnn(C3CCNCC3)c2)cnc1N)c1c(Cl)ccc(F)c1Cl [Crizotinib] | 0.505 | 0.118 | medium (medium inhibitors causing a ≥2 but <5-fold increase) | 0.0006 ± 0.0001 | 0.817 h⁻¹ | 0.4 | 70 ± 0.4 | 0.041 ± 0.005 | > 100 µM | 97.4 µM | 75 ± 0.11 | 0.044 ± 0.005 | 0.775 ± 0.13 µM | 0.091 µM | Cave,ss ([12]; 100 mg qd): 45 ng/mL; Cave,ss ([12]; 250 mg bid): 129 ng/mL; Cave,ss ([12]; 300 mg bid): 169 ng/mL; Cmax,ss ([12]; 100 mg qd): 86 ng/mL; Cmax,ss ([12]; 250 mg bid): 327 ng/mL; Cmax,ss ([12]; 300 mg bid): 420 ng/mL; Substrate of other transporters in vitro [14]: OATP1B1/3, 2B1; Ki ([18]; microsomes, pH 7.4): 0.09 µM |
| COc1ccc([C@@H]2Sc3ccccc3N(CCN(C)C)C(=O)[C@@H]2OC(C)=O)cc1 [Diltiazem] | 0.792 | 0.708 | – | – | – | – | – | – | – | – | – | – | – | – | Cmax,ss ([12]; 60 mg tid): 70 ng/mL; Cmax,ss ([12]; 240 mg qd): 166 ng/mL |
| CC[C@H]1OC(=O)[C@H](C)[C@@H](O[C@H]2C[C@@](C)(OC)[C@@H](O)[C@H](C)O2)[C@H](C)[C@@H](O[C@@H]2O[C@H](C)C[C@H](N(C)C)[C@H]2O)[C@](C)(O)C[C@@H](C)C(=O)[C@H](C)[C@@H](O)[C@]1(C)O [Erythromycin] | 0.64 | 0.586 | – | 0.0444 ± 0.0013 | 0.6 h⁻¹ | 0.65 | 1.2 ± 4.33 | 0.052 ± 0.192 | – | – | 1.5 ± 2.4 | 0.066 ± 0.104 | – | – | Cave,ss ([12]; 500 mg tid): 361 ng/mL; Cmax,ss ([12]; 500 mg tid): 821 ng/mL |
| Cc1ccc(NC(=O)c2ccc(CN3CCN(C)CC3)cc2)cc1Nc1nccc(-c2cccnc2)n1 [Imatinib] | – | – | – | – | – | – | – | – | – | – | – | – | – | – | Cmax,ss ([12]; 400 mg qd): 2,596 ng/ml |
| CCc1nn(CCCN2CCN(c3cccc(Cl)c3)CC2)c(=O)n1CCOc1ccccc1 [Nefazodone] | 0.187 | 0.18 | – | 0.0019 ± 0.0001 | – | 1.00 | 11 ± 1.6 | 0.021 ± 0.003 | 2.59 ± 0.22 µM | 0.242 µM | 8.1 ± 1.3 | 0.015 ± 0.002 | – | – | Cave,ss ([12]; 200 mg bid): 582 ng/mL; Cmax,ss ([12]; 200 mg bid): 1,400 ng/ml; Fic/Fcyto [13]: 0.74 |
| Cc1cn(-c2cc(NC(=O)c3ccc(C)c(Nc4nccc(-c5cccnc5)n4)c3)cc(C(F)(F)F)c2)cn1 [Nilotinib] | 0.195 | 0.121 | medium (medium inhibitors causing a ≥2 but <5-fold increase) | 0.0002 | – | 0.30 | 51 ± 9 | 0.008 ± 0.001 | 1.31 ± 0.3 µM | 0.128 µM | – | 0.022 ± 0.001 | 1.29 ± 0.23 µM | 0.156 µM | – |
| Cc1ccc(Nc2nccc(N(C)c3ccc4c(C)n(C)nc4c3)n2)cc1S(N)(=O)=O [Pazopanib] | – | – | – | – | – | 0.80 | – | – | – | – | – | – | – | – | Cave,ss ([12]; 800 mg qd): 30,971 ng/ml; Substrate of other transporters in vitro [14]: OATP1B1/3, OCT1 |
| CC[C@H]1OC(=O)[C@H](C)[C@@H](O[C@H]2C[C@@](C)(OC)[C@@H](O)[C@H](C)O2)[C@H](C)[C@@H](O[C@@H]2O[C@H](C)C[C@H](N(C)C)[C@H]2O)[C@](C)(O)C[C@@H](C)/C(=N\OCOCCOC)[C@H](C)[C@@H](O)[C@]1(C)O [Roxithromycin] | 0.637 | 0.612 | weak (weak inhibitors causing a ≥1.25 but <2-fold increase) | 0.0241 ± 0.0004 | 4.96 h⁻¹ | 0.86 | 3.3 ± 0.75 | 0.08 ± 0.02 | 82.4 ± 44.9 µM | 26.2 µM | 5.4 ± 0.3 | 0.13 ± 0.01 | 31.4 ± 16.5 µM | 19.2 µM | Cave,ss ([12]; 300 mg qd): 5,413 ng/ml; Cmax,ss ([12]; 300 mg qd): 10,900 ng/ml; B/P [19]: 0.70; Kp compared with Kpcyto [13]: significantly larger; Fic/Fcyto [13]: 1.61 |
| CC[C@H]1OC(=O)[C@H](C)C(=O)[C@H](C)[C@@H](O[C@@H]2O[C@H](C)C[C@H](N(C)C)[C@H]2O)[C@](C)(OC)C[C@@H](C)C(=O)[C@H](C)[C@H]2N(CCCCn3cnc(-c4cccnc4)c3)C(=O)O[C@]12C [Telithromycin] | 0.962 | 0.657 | strong (strong inhibitors of CYP3A, causing a ≥5-fold increase in the area under the concentration-time curve (AUC) of the probe drug) | 0.0371 ± 0.0016 | 0.95 h⁻¹ | 0.92 | 7.24 ± 0.8 | 0.27 ± 0.03 | 14.1 ± 3.5 µM | 6.77 µM | 6.6 ± 0.6 | 0.25 ± 0.03 | 1.49 ± 0.19 µM | 0.979 µM | Cave,ss ([12]; 800 mg qd): 425 ng/mL; Cmax,ss ([12]; 800 mg qd): 1,840 ng/ml; Kp compared with Kpcyto [13]: comparable Kp and Kpcyto; Fic/Fcyto [13]: 0.92 |
| Cc1ncc2n1-c1ccc(Cl)cc1C(c1ccccc1F)=NC2 [midazolam, Midazolam] | – | – | – | – | – | – | – | – | – | – | – | – | – | – | fraction metabolized by CYP3A4 (fm) [20]: 0.94; fraction of drug escaping CYP3A4-mediated gut metabolism (FG) [20]: 0.51 |

From article PMC6458156, “Improved predictions of time-dependent drug-drug interactions by determination of cytosolic drug concentrations” (Scientific Reports, 2019)
